Data on three compounds can be found in patent US8354399B2, “Substituted indazole derivatives active as kinase inhibitors” (Nerviano Medical Sciences S.R.L., priority 2008, dated 2013).

Structures are written as SMILES.

For assay [1], the target named is T1, JAK2 (Homo sapiens, UniProt O60674).
T1 construct: The assay has been performed using the commercially available JAK2 kinase domain; purchased Invitrogen, Eugene, Oreg
The assay can be described thus: Biochemical assay for inhibitors of JAK2 kinase activity. The text has this:
Biochemical Assay for Inhibitors of JAK2 Kinase Activity
General Principle—A specific JAK2 peptide substrate is trans-phosphorylated by JAK2 kinase in the presence of ATP traced with ^33P-γ-ATP. At the end of the phosphorylation reaction, 98% of the cold and radioactive ATP is captured by an excess of dowex ion exchange resin that eventually settles by gravity to the bottom of the reaction plate. The supernatant is subsequently withdrawn and transferred into a counting plate that is then evaluated by β-counting.
JAK2 Kinase Buffer (KB—Kinase buffer was composed of 50 mM HEPES pH 7.5 containing 10 mM MgCl2, 2.5 mM DTT, 10 microM Na3VO4, and 0.2 mg/mL BSA. 3× KB is buffer of the same composition and pH as KB, but with three times the concentration of each component.
Assay conditions—The JAK2 kinase assay was run with a final enzyme concentration of 1 nM, in the presence of 60 microM ATP, 3 nM 33P-γ-ATP and 64 microM of substrate Jaktide (Aminoacid sequence: LPLDKDYYVVREPGQ). The Jaktide was purchased from American Peptide Company (Sunnyvale, Calif.).
Compound Dilution—For IC50 determination, test compounds are received as a 1 mM solution in 100% DMSO, distributed into 96 well plates: compounds are then plated into the first column of a microtiter plate (A1 to G1), 100 μl/well. […]
Another mixing cycle is performed after all the plates are stopped, this time using normal tips: the plates are then allowed to rest for about one hour in order to maximize ATP capture. At this point, 27 μl of the supernatant are transferred into 384-Optiplates (Perkin-Elmer), with 50 μl of Microscint 40 (Perkin-Elmer); after 5 min of orbital shaking the plates are read on a Perkin-Elmer Top Count radioactivity counter.
Data Fitting—Data are analyzed by an internally customized version of the SW package “Assay Explorer” that provides sigmoidal fitting of the ten-dilutions curves for IC50 determination in the secondary assays/hit confirmation routines.

Assay [2] addresses T2, IGF-1R (Homo sapiens, UniProt P08069).
T2 construct: amino acid residues 960-1367 of precursor protein; made in house; host or cells: H5 insect cells (baculovirus; virus generated in Sf21)
The assay can be described thus: Biochemical assay for inhibitors of IGF-1R kinase activity. The protocol: Preparation of IGF-1R for Use in Biochemical Assay
Human cDNA was used as template for amplification by polymerase chain reaction (PCR) of the predicted cytoplasmic portion of IGF-1R (amino acid residues 960-1367 of precursor protein; see NCBI Entrez Protein Accession #P08069) which includes the entire kinase domain. PCR was conducted using the forward primer sequence
Biochemical Assay for Inhibitors of IGF-1R Kinase Activity
The inhibitory activity of putative kinase inhibitors and the potency of selected compounds were determined using a trans-phosphorylation assay.
A specific substrate was incubated with the kinase in appropriate buffer conditions in the presence of ATP traced with ^33P-γ-ATP (gamma phosphate-labeled, Redivue™ Code Number AH9968, 1000-3000Ci/mmole, Amersham Biosciences Piscataway, N.J., USA), optimal cofactors and test compound.
At the end of the phosphorylation reaction, more than 98% cold and radioactive ATP were captured by an excess of Dowex ion exchange resin. The resin was allowed to settle to the bottom of reaction wells by gravity. Supernatant, containing substrate peptide, was subsequently withdrawn and transferred into a counting plate, and radioactivity (corresponding to phosphate incorporated into peptide) was evaluated by β-counting.
Kinase buffer was composed of 50 mM HEPES pH 7.9 containing 3 mM MnCl2, 1 mM DTT, 3 microM Na3VO4, and 0.2 mg/mL BSA. 3× KB is buffer of the same composition and pH as KB, but with three times the concentration of each component.
Prior to starting the kinase inhibition assay, IGF-1R was pre-phosphorylated in order to linearize reaction kinetics. To achieve this, the desired total quantity of enzyme was prepared at an enzyme concentration of 360 nM in KB containing 100 microM ATP, and this preparation was incubated for 30 min at 28° C. 3× Enzyme Mix was obtained by diluting this preactivated enzyme 20-fold in 3× KB. […]

For assay [3], the target named is T3, ALK (Homo sapiens, UniProt Q9UM73).
T3 construct: made in house; host or cells: Sf21 insect cells (baculovirus)
The assay can be described thus: Biochemical assay for inhibitors of ALK kinase activity. From the text:
Preparation of ALK Cytoplasmic Domain for Use in Biochemical Assay
ALK cytoplasmic domain, corresponding to the residue 1060-1620 (the numbers of the amino acid residues refer to the Genbank accession number NP 004295.2) was PCR amplified from a human testis cDNA library.
For cloning purposes, the oligonucleotides included attB sites in order to obtain an attB-flanked PCR product suitable for cloning using the Gateway technology (Invitrogen). Furthermore, for purification purposes, forward primer included a PreScission cleavage site (Amersham Biosciences). The resulting PCR product was cloned in the baculovirus expression vector pVL1393 (Invitrogen) Gateway-modified. For expression and purification purpose, a GST tag was added N-terminal to the ALK cytoplasmic domain. Cloning was performed according to the protocols described in the Gateway manual (Invitrogen).
Biochemical Assay for Inhibitors of ALK Kinase Activity
ALK enzyme needs pre-activation in order to linearize reaction kinetics.
Kinase buffer was composed of 50 mM HEPES pH 7.5 containing 1 mM MnCl2, 5 mM MgCl2, 1 mM DTT, 3 microM Na3VO4, and 0.2 mg/mL BSA. 3× KB is buffer of the same composition and pH as KB, but with three times the concentration of each component.
The kinase assay was run with a final enzyme concentration of 20 nM, in the presence of 8 microM ATP, 1 nM ^33P-γ-ATP and 2 microM MBP. The MPB was purchased from Sigma-Aldrich, St. Louis, Mo., USA.

T1 sequence (O60674 849-1124 limits assumed): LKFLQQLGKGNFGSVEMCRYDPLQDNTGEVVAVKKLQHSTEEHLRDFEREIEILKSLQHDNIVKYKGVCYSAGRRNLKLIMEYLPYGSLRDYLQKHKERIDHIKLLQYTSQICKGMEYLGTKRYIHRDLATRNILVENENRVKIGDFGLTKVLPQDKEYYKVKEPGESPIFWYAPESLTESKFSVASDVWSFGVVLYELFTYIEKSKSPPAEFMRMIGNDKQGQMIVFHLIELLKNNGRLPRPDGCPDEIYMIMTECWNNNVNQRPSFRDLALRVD
T3 sequence (Q9UM73 1060-1620): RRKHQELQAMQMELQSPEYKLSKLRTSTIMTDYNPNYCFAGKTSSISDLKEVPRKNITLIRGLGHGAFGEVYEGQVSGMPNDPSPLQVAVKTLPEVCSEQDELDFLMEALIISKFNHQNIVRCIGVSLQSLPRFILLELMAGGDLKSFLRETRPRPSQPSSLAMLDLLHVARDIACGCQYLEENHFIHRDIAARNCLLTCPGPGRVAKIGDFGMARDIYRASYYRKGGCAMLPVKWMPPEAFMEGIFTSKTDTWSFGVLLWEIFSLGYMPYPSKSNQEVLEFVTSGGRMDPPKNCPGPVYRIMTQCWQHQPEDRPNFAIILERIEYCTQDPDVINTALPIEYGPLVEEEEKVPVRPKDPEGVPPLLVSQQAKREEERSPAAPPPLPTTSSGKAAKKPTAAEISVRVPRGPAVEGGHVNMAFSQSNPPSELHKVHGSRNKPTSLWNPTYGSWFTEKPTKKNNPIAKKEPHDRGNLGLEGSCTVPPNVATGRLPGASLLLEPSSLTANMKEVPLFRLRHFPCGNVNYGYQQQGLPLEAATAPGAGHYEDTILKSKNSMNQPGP
T2 sequence (P08069 960-1367): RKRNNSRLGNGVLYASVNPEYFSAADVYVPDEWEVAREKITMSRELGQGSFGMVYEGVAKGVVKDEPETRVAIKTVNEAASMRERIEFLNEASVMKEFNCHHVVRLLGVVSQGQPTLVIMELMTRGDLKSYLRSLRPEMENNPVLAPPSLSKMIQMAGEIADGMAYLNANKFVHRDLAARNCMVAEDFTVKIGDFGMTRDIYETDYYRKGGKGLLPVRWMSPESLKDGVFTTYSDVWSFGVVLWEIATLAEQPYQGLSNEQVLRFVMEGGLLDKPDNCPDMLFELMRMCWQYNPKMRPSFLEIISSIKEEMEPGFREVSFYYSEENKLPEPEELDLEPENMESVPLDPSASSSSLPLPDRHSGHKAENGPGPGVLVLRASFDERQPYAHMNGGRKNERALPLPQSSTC

Take `CN1CCN(c2ccc(C(=O)Nc3n[nH]c4ccc(OCc5cc(F)cc(F)c5)cc34)c(NC3CCOCC3)c2)CC1` [Cpd. 8, N-{5-[(3,5-difluorobenzyl)oxy]-1H-indazol-3-yl}-4-(4-methylpiperazin-1-yl)-2-(tetrahydro-2H-pyran-4-ylamino)benzamide]: the half-inhibitory concentration (IC50) – broadly, the concentration needed to halve the response being measured – in assay [1] amounted to 0.02 µM; in assay [2] it was 0.14 µM; in assay [3], 0.02 µM.
Regarding `CN1CCN(c2ccc(C(=O)Nc3n[nH]c4ccc(OCc5cc(F)cc(F)c5)cc34)c(NCCF)c2)CC1` [Cpd. 36, N-{5-[(3,5-difluorobenzyl)oxy]-1H-indazol-3-yl}-2-[(2-fluoroethyl)amino]-4-(4-methylpiperazin-1-yl)benzamide], the IC50 in assay [1] worked out at 0.01 µM; in assay [2] it was 0.2 µM; in assay [3] it was 0.01 µM.
In the case of `O=C(Nc1n[nH]c2ccc(OCc3cc(F)cc(F)c3)cc12)c1ccccc1` [Ref. compound, reference compound], the figures for the IC50 in assay [1], in assay [2] and in assay [3] were 0.22 µM, more than 10 µM and 1.87 µM, respectively.
